# From patent publication US12473250B2, “Molecular design of new antibiotics and antibiotic adjuvants against MCR strains” (priority 2019, dated 2025)
# Experiments:
# [1] = system: colistin resistant MCR (+) E. Coli strains; assay: Synergy study: colistin MIC in the presence of compound; format: cell-based
# Summary of the method: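 After 24 hours, MIC was read as the lowest concentration without visible growth. Drugs were tested singly and in combination by CLSI broth microdilution, equal-amount colistin:LC compound mixtures serially diluted 2-fold at a fixed synergy concentration.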
# [2] = system: 6083655967 [MCR 1+; E.Coli]; assay: Synergistic study between LC100 or LC101 with B2088; format: cell-based; settings: for Combination MIC: strain 6083655967, value of each component
# Method: (§1) The MICs of the individual drugs and LC compound in combinations were determined using the broth microdilution technique as recommended by the CLSI whereby the two anti-microbial agents were added in an equal amount. (e.g.: 50 μL of Colistin: 50 μL of LC compounds). Diluted media containing compounds and antibiotics will be serially diluted 2-fold, and LC compounds and antibiotics alone or in combination will be assayed at fixed synergy concentration. In all cases, the lowest concentration at which no visible growth occurred was be recorded to be the MIC value of individual and combined antibacterial agents. The results were obtained after 24 hours of incubation.
# Using the combination of LC100 and colistin, the activity of a broad range of strains was further tested (Table 7).
# MCR-1 protein = biological target: T1, MCR-1 protein (Escherichia coli, UniProt A0A0R6L508); assay: Fluorescence quenching of MCR-1 protein; format: binding; settings: autofluorescence at 323 nm; increasing LC100 concentration
# T1 construct: purchased Bioprocessing technology institute, A*STAR (Singapore, Singapore)
# T1 sequence (A0A0R6L508 whole entry): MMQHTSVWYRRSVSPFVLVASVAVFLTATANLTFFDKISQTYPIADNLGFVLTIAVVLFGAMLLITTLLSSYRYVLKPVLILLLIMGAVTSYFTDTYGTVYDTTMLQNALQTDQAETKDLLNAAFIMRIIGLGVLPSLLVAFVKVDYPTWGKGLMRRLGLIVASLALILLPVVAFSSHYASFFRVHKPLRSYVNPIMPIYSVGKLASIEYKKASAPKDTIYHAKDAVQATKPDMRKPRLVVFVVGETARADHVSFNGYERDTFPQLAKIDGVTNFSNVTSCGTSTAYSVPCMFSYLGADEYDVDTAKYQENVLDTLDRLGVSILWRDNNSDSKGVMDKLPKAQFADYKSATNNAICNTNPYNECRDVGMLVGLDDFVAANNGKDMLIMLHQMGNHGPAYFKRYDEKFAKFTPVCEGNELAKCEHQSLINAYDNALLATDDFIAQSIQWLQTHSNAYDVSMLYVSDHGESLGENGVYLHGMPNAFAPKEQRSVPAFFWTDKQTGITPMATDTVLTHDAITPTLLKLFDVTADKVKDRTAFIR
# Method: However, EtBr is membrane impermeable, which means that it can only enter the bacterial cell and bind to DNA and emit fluorescence only when both the bacterial outer and inner membranes are perturbed. […] It is also possible that LC100 may have other targets. One possible target is the MCR-1 protein. To understand the interaction of LC100 and the MCR-1 protein, the fluorescence of MCR-1 protein in the presence of different concentration of LC100 was measured. MCR-1 protein contains several tryptophan residues, and autofluoresces at 323 nm.
# [3] = system: KLPN multi-drug resistant strains; assay: Synergy of LC100 with colistin against multi-drug resistant strains (Table 5); format: cell-based, Klebsiella pneumonia
# Method: as §1
compound,measurement,setting,value
CCN(CC)CCCCOc1ccc(/C=C/C(=O)c2ccc(OCCCCN(CC)CC)c(CC=C(C)C)c2O)cc1 [LC100],Colistin MIC in the presence of the compound,"[1]; strain 6083655967, MCR(+), compound at 10 μg (Table 2a: 10 ug/ml), listed as LC 100",<0.0975 µg/mL
same,Colistin MIC in the presence of the compound,"[1]; strain 6103645107, MCR(+), compound at 2 μg",1.56 µg/mL
same,Colistin MIC in the presence of the compound,"[1]; strain 6103645107, MCR(+), compound at 3 μg",0.78 µg/mL
same,Colistin MIC in the presence of the compound,"[1]; strain 6103645107, MCR(+), compound at 5 μg (Table 2a: 5 ug/ml)",0.195 µg/mL
same,Colistin MIC in the presence of the compound,"[1]; strain 6103645107, MCR(+), compound at 10 μg (Table 2a: 10 ug/ml)",<0.098 µg/mL
same,Colistin MIC in the presence of the compound,"[1]; strain 6103645107, MCR(+), compound at 10 μg (Table 2a: 10 ug/ml), listed as LC 100",<0.0975 µg/mL
same,Colistin MIC in the presence of the compound,"[1]; strain 6123520276, MCR(+), compound at 2 μg",1.56 µg/mL
same,Colistin MIC in the presence of the compound,"[1]; strain 6123520276, MCR(+), compound at 3 μg",0.78 µg/mL
same,Colistin MIC in the presence of the compound,"[1]; strain 6123520276, MCR(+), compound at 5 μg (Table 2a: 5 ug/ml)",0.195 µg/mL
same,Colistin MIC in the presence of the compound,"[1]; strain 6123520276, MCR(+), compound at 10 μg (Table 2a: 10 ug/ml)",<0.098 µg/mL
same,Colistin MIC in the presence of the compound,"[1]; strain 6123520276, MCR(+), compound at 10 μg (Table 2a: 10 ug/ml), listed as LC 100",<0.0975 µg/mL
same,Colistin MIC in the presence of the compound,"[1]; strain 7013177695, MCR(+), compound at 2 μg",1.56 µg/mL
same,Colistin MIC in the presence of the compound,"[1]; strain 7013177695, MCR(+), compound at 3 μg",0.39 µg/mL
same,Colistin MIC in the presence of the compound,"[1]; strain 7013177695, MCR(+), compound at 5 μg (Table 2a: 5 ug/ml)",0.195 µg/mL
same,Colistin MIC in the presence of the compound,"[1]; strain 7013177695, MCR(+), compound at 10 μg (Table 2a: 10 ug/ml)",<0.098 µg/mL
same,Colistin MIC in the presence of the compound,"[1]; strain 7013177695, MCR(+), compound at 10 μg (Table 2a: 10 ug/ml), listed as LC 100",<0.0975 µg/mL
same,Colistin MIC in the presence of the compound,"[1]; strain 7023436560, MCR(+), compound at 2 μg",1.56 µg/mL
same,Colistin MIC in the presence of the compound,"[1]; strain 7023436560, MCR(+), compound at 3 μg",0.39 µg/mL
same,Colistin MIC in the presence of the compound,"[1]; strain 7023436560, MCR(+), compound at 5 μg (Table 2a: 5 ug/ml)",0.195 µg/mL
same,Colistin MIC in the presence of the compound,"[1]; strain 7023436560, MCR(+), compound at 10 μg (Table 2a: 10 ug/ml)",<0.098 µg/mL
same,Colistin MIC in the presence of the compound,"[1]; strain 7023436560, MCR(+), compound at 10 μg (Table 2a: 10 ug/ml), listed as LC 100",<0.0975 µg/mL
same,Colistin MIC in the presence of the compound,"[1]; strain 7023444207, MCR(+), compound at 2 μg",1.56 µg/mL
same,Colistin MIC in the presence of the compound,"[1]; strain 7023444207, MCR(+), compound at 3 μg",0.39 µg/mL
same,Colistin MIC in the presence of the compound,"[1]; strain 7023444207, MCR(+), compound at 5 μg (Table 2a: 5 ug/ml)",0.195 µg/mL
same,Colistin MIC in the presence of the compound,"[1]; strain 7023444207, MCR(+), compound at 10 μg (Table 2a: 10 ug/ml)",<0.098 µg/mL
same,Colistin MIC in the presence of the compound,"[1]; strain 7023444207, MCR(+), compound at 10 μg (Table 2a: 10 ug/ml), listed as LC 100",<0.0975 µg/mL
same,Combination MIC,[2]; combination B2088 (Ac) + LC 100,2 µg/mL
same,Combination MIC,[2]; combination B2088 + LC 100,1 µg/mL
same,level of synergistic effect with B2088,[2]; killing E. coli with the mcr-1 mutation,1 µg/mL
same,fluorescence of MCR-1 protein (quenching),MCR-1 protein,the fluorescence decreases
same,Colistin MIC in the presence of LC100,"[3]; strain KLPN 8852, LC 100 2 μg",>25 µg/mL
same,Colistin MIC in the presence of LC100,"[3]; strain KLPN 8852, LC 100 5 μg",25 µg/mL
same,Colistin MIC in the presence of LC100,"[3]; strain KLPN 15588, LC 100 2 μg",0.39 µg/mL
same,Colistin MIC in the presence of LC100,"[3]; strain KLPN 15588, LC 100 5 μg",<0.0975 µg/mL
same,Colistin MIC in the presence of LC100,"[3]; strain KLPN 24076, LC 100 2 μg",0.39 µg/mL
same,Colistin MIC in the presence of LC100,"[3]; strain KLPN 24076, LC 100 5 μg",<0.0975 µg/mL
same,Colistin MIC in the presence of LC100,"[3]; strain KLPN 27025, LC 100 2 μg",0.195 µg/mL
same,Colistin MIC in the presence of LC100,"[3]; strain KLPN 27025, LC 100 5 μg",<0.0975 µg/mL
